# Measurements: ChEMBL document CHEMBL5729568, “Ras inhibitors” (2023)
# Entries after “also recorded” stand apart in the source; their conditions may differ.
# Columns and labels:
# [1] = (§1) Biochemical Assay: A variety of Ras proteins may be inhibited by compounds of the present invention (e.g., K-Ras, N-Ras, H-Ras, and mutants thereof at positions 12, 13 and 61, such as G12C, G12D, G12V, G12S, G13C, G13D, and Q61L, and others described herein). The purpose of this biochemical assay is to measure the ability of test compounds to covalently label nucleotide-loaded K-Ras isoforms. […] The sample is incubated at 25? C. for a time period of up to 24 hours prior to quenching by the addition of 10 uL of 5% Formic Acid. Quenched samples are centrifuged at 15000 rpm for 15 minutes in a benchtop centrifuge before injecting a 10 uL aliquot onto a reverse phase C4 column and eluting into the mass spectrometer with an increasing acetonitrile gradient in the mobile phase. Analysis of raw data may be carried out using Waters MassLynx MS software, with % bound calculated from the deconvoluted protein peaks for labeled and unlabeled K-Ras.
# [2] = as §1; remark: listed apart in the source
# [3] = as §1; remark: listed apart in the source
# [4] = as §1; remark: listed apart in the source
# [5] = as §1; remark: listed apart in the source
# [6] = as §1; remark: listed apart in the source
# [7] = as §1; remark: listed apart in the source
IC50 [1],IC50 [2],IC50 [3],IC50 [4],IC50 [5],IC50 [6],IC50 [7],Compound
> 10 µM,in the range around 0.55 µM,in the range around 5.5 µM,in the range around 5.5 µM,in the range around 5.5 µM,> 10 µM,in the range around 5.5 µM,C=CC(=O)N1CC(OC[C@H](C(=O)N[C@H]2C[C@H]3CN(CCO3)c3ccc4c(c3)c(c(-c3cccnc3C(C)OC)n4CC(F)(F)F)CC(C)(C)COC(=O)[C@@H]3CCCN(N3)C2=O)C(C)C)C1 (some centres not stated)
> 10 µM,< 0.01 µM,> 10 µM,> 10 µM,in the range around 5.5 µM,> 10 µM,> 10 µM,CCn1c(-c2cccnc2C(C)OC)c2c3cc(ccc31)N1CCO[C@@H](C[C@H](NC(=O)[C@@H](COC3CN(C(=O)C#CC(C)(C)N(C)C)C3)C(C)C)C(=O)N3CCC[C@H](N3)C(=O)OCC(C)(C)C2)C1 (some centres not stated)
> 10 µM,< 0.01 µM,in the range around 5.5 µM,in the range around 5.5 µM,in the range around 5.5 µM,> 10 µM,in the range around 5.5 µM,COC(C)c1ncccc1-c1c2c3cc(ccc3n1CC(F)(F)F)-c1cccc(c1)C[C@H](NC(=O)[C@@H](COC1CN(C(=O)C#CC(C)(C)N(C)C)C1)C(C)C)C(=O)N1CCC[C@H](N1)C(=O)OCC(C)(C)C2 (some centres not stated)
> 10 µM,in the range around 0.055 µM,in the range around 5.5 µM,in the range around 5.5 µM,in the range around 0.55 µM,in the range around 5.5 µM,in the range around 5.5 µM,CCn1c(-c2cccnc2C(C)OC)c2c3cc(ccc31)N1CCO[C@@H](C[C@H](NC(=O)[C@H](C(C)C)N(C)C(=O)C3(F)CCN(C(=O)/C=C/CN(C)C)CC3)C(=O)N3CCC[C@H](N3)C(=O)OCC(C)(C)C2)C1 (some centres not stated)
> 10 µM,in the range around 0.055 µM,in the range around 5.5 µM,> 10 µM,in the range around 5.5 µM,> 10 µM,in the range around 5.5 µM,CCn1c(-c2cccnc2C(C)OC)c2c3cc(ccc31)-c1cccc(c1)C[C@H](NC(=O)[C@@H](COC1CN(C(=O)C#CC(C)(C)N3CCC3)C1)C(C)C)C(=O)N1CCC[C@H](N1)C(=O)OCC(C)(C)C2 (some centres not stated)
> 10 µM,< 0.01 µM,> 10 µM,> 10 µM,in the range around 5.5 µM,> 10 µM,in the range around 5.5 µM,COC(C)c1ncccc1-c1c2c3cc(ccc3n1CC(F)(F)F)N1CCO[C@@H](C[C@H](NC(=O)[C@@H](COC3CN(C(=O)C#CC(C)(C)N(C)C)C3)C(C)C)C(=O)N3CCC[C@H](N3)C(=O)OCC(C)(C)C2)C1 (some centres not stated)
> 10 µM,in the range around 0.055 µM,> 10 µM,> 10 µM,> 10 µM,> 10 µM,> 10 µM,CCn1c(-c2cccnc2C(C)OC)c2c3cc(ccc31)N1CCC[C@@H](C[C@H](NC(=O)[C@@H](COC3CN(C(=O)C#CC(C)(C)N(C)C)C3)C(C)C)C(=O)N3CCC[C@H](N3)C(=O)OCC(C)(C)C2)C1 (some centres not stated)
in the range around 5.5 µM,in the range around 0.055 µM,in the range around 5.5 µM,in the range around 5.5 µM,in the range around 0.55 µM,in the range around 5.5 µM,in the range around 5.5 µM,C=CC(=O)N1CCC(F)(C(=O)N(C)[C@H](C(=O)N[C@H]2C[C@H]3CN(CCO3)c3ccc4c(c3)c(c(-c3cccnc3C(C)OC)n4CC)CC(C)(C)COC(=O)[C@@H]3CCCN(N3)C2=O)C(C)C)CC1 (some centres not stated)
> 10 µM,in the range around 0.055 µM,> 10 µM,> 10 µM,in the range around 5.5 µM,> 10 µM,> 10 µM,CCn1c(-c2cccnc2C(C)OC)c2c3cc(ccc31)-c1cccc(c1)C[C@H](NC(=O)[C@@H](COC1CN(C(=O)C#C[C@H]3COCCN3C)C1)C(C)C)C(=O)N1CCC[C@H](N1)C(=O)OCC(C)(C)C2 (some centres not stated)
> 10 µM,< 0.01 µM,in the range around 5.5 µM,in the range around 5.5 µM,in the range around 5.5 µM,> 10 µM,in the range around 5.5 µM,COC(C)c1ncccc1-c1c2c3cc(ccc3n1CC(F)(F)F)-c1cc(F)cc(c1)C[C@H](NC(=O)[C@@H](COC1CN(C(=O)C#CC(C)(C)N(C)C)C1)C(C)C)C(=O)N1CCC[C@H](N1)C(=O)OCC(C)(C)C2 (some centres not stated)

# More lines, now with the values behind:
Compound,IC50 [1],IC50 [2],IC50 [3],IC50 [4],IC50 [5],IC50 [6],IC50 [7]
C=CC(=O)Nc1ncc(C(=O)N(C)[C@H](C(=O)N[C@H]2Cc3cccc(c3)-c3ccc4c(c3)c(c(-c3cccnc3C(C)OC)n4CC)CC(C)(C)COC(=O)[C@@H]3CCCN(N3)C2=O)C(C)C)n1C (some centres not stated),in the range around 5.5 µM,< 0.01 µM,in the range around 0.55 µM,in the range around 5.5 µM,< 0.01 µM,in the range around 5.5 µM,in the range around 5.5 µM
COC(C)c1ncccc1-c1c2c3cc(ccc3n1CC(F)(F)F)-c1cccc(c1)CN(NC(=O)[C@@H](COC1CN(C(=O)C#CC(C)(C)N(C)C)C1)C(C)C)C(=O)N1CCC[C@H](N1)C(=O)OCC(C)(C)C2 (some centres not stated),in the range around 5.5 µM,< 0.01 µM,in the range around 5.5 µM,in the range around 5.5 µM,in the range around 0.55 µM,in the range around 5.5 µM,in the range around 5.5 µM
C=CC(=O)N1CC(OC[C@H](C(=O)N[C@H]2Cc3cc(F)cc(c3)-c3ccc4c(c3)c(c(-c3cccnc3C(C)OC)n4CC(F)(F)F)CC(C)(C)COC(=O)[C@@H]3CCCN(N3)C2=O)C(C)C)C1 (some centres not stated),in the range around 5.5 µM,in the range around 0.55 µM,in the range around 0.55 µM,in the range around 5.5 µM,in the range around 0.55 µM,in the range around 5.5 µM,in the range around 5.5 µM
COC(C)c1ncccc1-c1c2c3cc(ccc3n1CC(F)(F)F)-c1cc(cc(C(F)F)c1)C[C@H](NC(=O)[C@@H](COC1CN(C(=O)C#CC(C)(C)N(C)C)C1)C(C)C)C(=O)N1CCC[C@H](N1)C(=O)OCC(C)(C)C2 (some centres not stated),> 10 µM,in the range around 0.55 µM,> 10 µM,> 10 µM,> 10 µM,> 10 µM,> 10 µM
C=CC(=O)N1CCOC2(CCN(C(=O)N(C)[C@H](C(=O)N[C@H]3C[C@H]4CN(CCO4)c4ccc5c(c4)c(c(-c4cccnc4C(C)OC)n5CC)CC(C)(C)COC(=O)[C@@H]4CCCN(N4)C3=O)C(C)C)CC2)C1 (some centres not stated),in the range around 5.5 µM,in the range around 0.55 µM,in the range around 0.55 µM,in the range around 0.55 µM,in the range around 0.055 µM,in the range around 5.5 µM,in the range around 0.55 µM
C=CC(=O)N1CCO[C@H]2CN(C(=O)N(C)[C@H](C(=O)N[C@H]3Cc4cc(C(F)F)cc(n4)-c4ccc5c(c4)c(c(-c4cccnc4C(C)OC)n5CC(F)(F)F)CC(C)(C)COC(=O)[C@@H]4CCCN(N4)C3=O)C(C)C)C[C@H]21 (some centres not stated),in the range around 5.5 µM,in the range around 0.55 µM,in the range around 0.55 µM,in the range around 5.5 µM,in the range around 0.055 µM,in the range around 5.5 µM,in the range around 5.5 µM
"C=C(C)C(=O)N1CC(N(C)C(=O)N(C)[C@H](C(=O)N[C@H]2Cc3nc(cs3)-c3ccc4c(c3)c(c(-c3cccnc3[C@H](C)OC)n4CC)CC(C)(C)COC(=O)[C@@H]3CCCN(N3)C2=O)C(C)C)C1 (atropisomer, axis not shown)",in the range around 5.5 µM,–,in the range around 5.5 µM,in the range around 5.5 µM,in the range around 5.5 µM,–,in the range around 5.5 µM
C=CC(=O)Nc1cnc(OC[C@H](C(=O)N[C@H]2Cc3cccc(c3)-c3ccc4c(c3)c(c(-c3cccnc3C(C)OC)n4CC)CC(C)(C)COC(=O)[C@@H]3CCCN(N3)C2=O)C(C)C)n1C (some centres not stated),in the range around 5.5 µM,< 0.01 µM,in the range around 0.55 µM,in the range around 5.5 µM,in the range around 0.055 µM,in the range around 5.5 µM,in the range around 5.5 µM
C=CC(=O)N1CC[C@H](C(=O)N(C)[C@H](C(=O)N[C@H]2Cc3cc(sn3)-c3ccc4c(c3)c(c(-c3cccnc3[C@H](C)OC)n4CC)CC(C)(C)COC(=O)[C@@H]3CCCN(N3)C2=O)C(C)C)C1,in the range around 5.5 µM; also recorded: in the range around 550 nM,–,–,–,–,–,–
C=CC(=O)N1CCOC2(CCN(C(=O)N(C)[C@H](C(=O)N[C@H]3Cc4cc(CF)cc(c4)-c4ccc5c(c4)c(c(-c4cccnc4C(C)OC)n5CC(F)(F)F)CC(C)(C)COC(=O)[C@@H]4CCCN(N4)C3=O)C(C)C)CC2)C1 (some centres not stated),in the range around 0.55 µM,in the range around 0.55 µM,in the range around 0.055 µM,in the range around 0.55 µM,in the range around 0.055 µM,in the range around 0.55 µM,in the range around 0.55 µM
CCn1c(-c2cccnc2C(C)OC)c2c3cc(ccc31)-c1cccc(c1)C[C@H](NC(=O)CCOC1CN(C(=O)C#CC(C)(C)N(C)C)C1)C(=O)N1CCC[C@H](N1)C(=O)OCC(C)(C)C2 (some centres not stated),–,in the range around 0.055 µM,–,> 10 µM,> 10 µM,> 10 µM,> 10 µM
